These results are taken from patent US5328913A, “Minoxidil analogs as inhibitors of cell proliferation and lysyl hydroxylase” (priority 1992, dated 1994).

The nature of data set [1]: Solubility with acetone as solvent. It counts as physicochemical. Conditions: acetone as the solvent; concentrations higher than 500 μM could not be tested.
Data set [2] deals with T1, lysyl hydroxylase (Homo sapiens, UniProt Q02809).
T1 sequence (Q02809 19-727): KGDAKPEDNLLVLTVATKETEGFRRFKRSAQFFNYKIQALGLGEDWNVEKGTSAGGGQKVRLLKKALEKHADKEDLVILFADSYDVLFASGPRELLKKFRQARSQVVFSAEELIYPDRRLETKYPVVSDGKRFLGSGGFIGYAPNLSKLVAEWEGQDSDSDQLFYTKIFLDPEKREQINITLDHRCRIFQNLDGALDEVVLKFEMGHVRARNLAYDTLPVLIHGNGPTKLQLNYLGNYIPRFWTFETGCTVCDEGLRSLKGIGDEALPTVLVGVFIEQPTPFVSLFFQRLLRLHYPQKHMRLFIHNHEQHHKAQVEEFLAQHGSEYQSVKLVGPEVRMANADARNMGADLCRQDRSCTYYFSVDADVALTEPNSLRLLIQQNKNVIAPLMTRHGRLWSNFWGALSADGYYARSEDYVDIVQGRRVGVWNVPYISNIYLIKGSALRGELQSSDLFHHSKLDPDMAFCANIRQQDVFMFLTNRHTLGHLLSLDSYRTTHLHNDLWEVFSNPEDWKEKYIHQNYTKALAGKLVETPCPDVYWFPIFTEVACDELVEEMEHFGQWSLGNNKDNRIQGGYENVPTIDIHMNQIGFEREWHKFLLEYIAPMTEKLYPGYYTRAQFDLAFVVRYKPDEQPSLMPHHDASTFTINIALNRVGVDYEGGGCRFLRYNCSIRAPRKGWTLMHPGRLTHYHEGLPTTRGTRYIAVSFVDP
The data set can be described thus: Direct inhibition of enzyme activity in vitro / mixing experiments with cell extracts. The data set is classed as biochemical.

Data set [3] concerns prolyl hydroxylase. The data set can be described thus: Prolyl hydroxylase activity in extracts of treated human skin fibroblasts (Example 1, tritium-release assay). Conditions: cultured fibroblasts; for effect on prolyl hydroxylase activity (in words): 72 h, Example 1. The data set is classed as cell-based. The method, then: (§1) Cultures of human skin fibroblasts grown to confluence were incubated for 72 h in medium supplemented with 1% ethanol containing various concentrations of minoxidil or deoxyminoxidil as indicated. Cells were then harvested, and the enzyme activities in extracts of these cells were measured by tritium-release assays (Murad and Pinnell, J. Biol. Chem. 262:11,973 (1987)). The results are expressed as percentages of zero-concentration values.
(§2) Cultures of human skin fibroblasts grown to confluence were incubated for 72 h in medium supplemented with 1% ethanol containing various concentrations of minoxidil or with 1% acetone containing various concentrations of minoxidil sulfate, as indicated. Cells were then harvested, and the enzyme activities in extracts of these cells were measured by tritium release assays (Murad and Pinnell, J. Biol. Chem. 262:11,973 (1987)). The results are expressed as percentages of zero-concentration values.
(§3) Skin fibroblast cultures derived from an apparently normal child (GM05659) were obtained from the Institute for Medical Research, Camden, N.J. The cells were subcultured by trypsinization and used before 25 population doublings. Typically, 4×10^5 cells were seeded onto 100-mm (diameter) plastic petri dishes and allowed to grow in 10 ml of Dulbecco's modified Eagle's minimum essential medium containing 5.6 mM glucose, buffered in pH 7.4 with 24 mM sodium biocarbonate/25 mM Hepes and supplemented with 20% (v/v) calf serum which had been inactivated for 30 min at 56° C. The cells were incubated at 37° C. in a humidified atmosphere of 5% CO2 plus 95% air.
(§4) After a week, the medium was replaced with medium supplemented with 0.5% heat-inactivated diaylzed calf serum, and the incubation was continued for 72 h in the presence of minoxidil or one of its structural analogs. The compounds were dissolved in 95% ethanol, except minoxidil sulfate which was dissolved in acetone; the final solvent concentration was 1% (v/v). During the last 3 h of incubation, cells received 100 μM Na L-ascorbate to ensure complete hydroxylation of the polypeptide precursors of precollagen (Murad et al, J. Invest. Dermatol. 75:404 (1980)).
The medium was then removed and the cells were washed twice with a solution containing 0.14 M NaCl, 5 mM KCl, 0.3 mM Na2 PO4, and 0.4 mM KH2 PO4, adjusted to pH 7.4. […] The trypsinization was terminated with 2 vol of 20% serum-supplemented medium, and the cell number in an aliquot of the suspension was determined using a Coulter counter. […]
(§5) The protein content of cell extracts was determined by a dye-binding technique using Bio-Rad reagent and protein standard (Bradford, Anal. Biochem. 72:248 (1976)).

Data set [4] has as its system lysyl hydroxylase. The data set is described as follows: Lysyl hydroxylase activity in extracts of treated human skin fibroblasts (Example 1, tritium-release assay). The data set is classed as cell-based. Conditions: cultured fibroblasts; for effect on lysyl hydroxylase activity (in words): 72 h, Example 1. The method, then:
as §1, §2, §3, §4
The medium was then removed and the cells were washed twice with a solution containing 0.14 M NaCl, 5 mM KCl, 0.3 mM Na2 PO4, and 0.4 mM KH2 PO4, adjusted to pH 7.4. The cells were detached from the plates with a solution containing 0.05% trypsin, 0.54 mM EDTA, 5.5mM glucose, 6.90mM NaHCO3, […], and 5 mM KCl. The trypsinization was terminated with 2 vol of 20% serum-supplemented medium, and the cell number in an aliquot of the suspension was determined using a Coulter counter.
The detached cells were collected by centrifugation at 500g for 6 min at 4° C. washed twice by suspending in phosphate-buffered NaCl/KCl as above, and then centrifuged. The cell pellet was suspended in a medium (1 ml/5×10^6 cells) containing 0.2 M NaCl, 0.1 M glycine, 50 μM dithiothreitol, 20 mM Tris-HCl, buffer (pH 7.5), 0.1% Triton X-100, and 0.01% soybean trypsin inhibitor. The suspension was sonicated for 30 s using a Branson sonifier cell disrupter. The lysate was centrifuged at 27,000g for 1 h at 4° C., and the resulting supernatant was used for prolyl and lysyl hydroxylase assays (Murad and Pinnell, J. Biol. Chem. 262:11, 973 (1987)). The enzyme activities are based on a unit of soluble cell protein.
as §5
Note: Cultures of human skin fibroblasts grown to confluence were
incubated for 72 h in medium supplemented with 1% ethanol containing 1 mM
of the indicated compounds. Cells were then harvested, and the enzyme
activity in extracts of these cells was measured by a tritiumrelease
incubated for 72 h in medium supplemented with 1% ethanol containing 1 nM

For data set [5], the system named is enzyme activity (lysyl hydroxylase, prolyl hydroxylase). The data set can be described thus: Direct inhibition of enzyme activity, mixing experiments with extracts of treated cells and controls. It counts as biochemical, human. The method, then:
The functional significance of the nitroxide oxygen in minoxidil was evaluated with a deoxy analog. Shown in FIG. 2 is a comparison of the effects of minoxidil and deoxyminoxidil on the activities of lysyl hydroxylase and the control enzyme prolyl hydroxylase in cultured fibroblasts.

The structures appear in SMILES notation. Structures can show the parent of a compound that is named as a salt.

Consider `Nc1cc(N2CCCCC2)nc(N)[n+]1OS(=O)(=O)[O-]` [Minoxidil sulfate], for which the “solubility (in words)” value in data set [1] is reported as “limited solubility”. In data set [2], the “inhibition of lysyl hydroxylase activity in vitro (in words)” value is on record as “failed to inhibit lysyl hydroxylase activity in vitro”. In addition, in data set [3], the “effect on prolyl hydroxylase activity (in words)” value is given as “no change in prolyl hydroxylase activity”. Also, the “effect on lysyl hydroxylase activity (in words)” value in data set [4] is “suppressed lysyl hydroxylase activity in a manner almost identical to that observed with minoxidil”.
`Nc1cc(N2CCCCC2)nc(N)n1` [Deoxyminoxidil]: the “direct inhibition of enzyme activity (in words)” value in data set [5] is on record as “no evidence for direct inhibition of enzyme activity”. In addition, the IC50 in data set [3] (72 h (FIG. 2), read-out: concentration required for 50% effect (prolyl hydroxylase)) turned out to be 260 µM; in data set [4] (72 h (FIG. 2), read-out: concentration required for 50% inhibition (lysyl hydroxylase)), 118 µM. Also, in data set [3], the “effect on prolyl hydroxylase activity (in words)” value is listed as “suppressed prolyl hydroxylase activity in a dose-related manner”. For the same compound, the “effect on lysyl hydroxylase activity (in words)” value in data set [4] is on record as “suppressed lysyl hydroxylase activity in a manner remarkably similar to that observed with minoxidil”.
